Literature values, collected in patent US8759371B2, “Heterocyclic compounds and their uses” (Amgen Inc., priority 2010, dated 2014).

Legend:
[1] = system: rheumatoid arthritis model; details: in vivo
[2] = system: systemic lupus erythematosis model; details: in vivo
p110δ = target: T1, p110δ (Homo sapiens, UniProt O00329)
T1 sequence (O00329 1-1044): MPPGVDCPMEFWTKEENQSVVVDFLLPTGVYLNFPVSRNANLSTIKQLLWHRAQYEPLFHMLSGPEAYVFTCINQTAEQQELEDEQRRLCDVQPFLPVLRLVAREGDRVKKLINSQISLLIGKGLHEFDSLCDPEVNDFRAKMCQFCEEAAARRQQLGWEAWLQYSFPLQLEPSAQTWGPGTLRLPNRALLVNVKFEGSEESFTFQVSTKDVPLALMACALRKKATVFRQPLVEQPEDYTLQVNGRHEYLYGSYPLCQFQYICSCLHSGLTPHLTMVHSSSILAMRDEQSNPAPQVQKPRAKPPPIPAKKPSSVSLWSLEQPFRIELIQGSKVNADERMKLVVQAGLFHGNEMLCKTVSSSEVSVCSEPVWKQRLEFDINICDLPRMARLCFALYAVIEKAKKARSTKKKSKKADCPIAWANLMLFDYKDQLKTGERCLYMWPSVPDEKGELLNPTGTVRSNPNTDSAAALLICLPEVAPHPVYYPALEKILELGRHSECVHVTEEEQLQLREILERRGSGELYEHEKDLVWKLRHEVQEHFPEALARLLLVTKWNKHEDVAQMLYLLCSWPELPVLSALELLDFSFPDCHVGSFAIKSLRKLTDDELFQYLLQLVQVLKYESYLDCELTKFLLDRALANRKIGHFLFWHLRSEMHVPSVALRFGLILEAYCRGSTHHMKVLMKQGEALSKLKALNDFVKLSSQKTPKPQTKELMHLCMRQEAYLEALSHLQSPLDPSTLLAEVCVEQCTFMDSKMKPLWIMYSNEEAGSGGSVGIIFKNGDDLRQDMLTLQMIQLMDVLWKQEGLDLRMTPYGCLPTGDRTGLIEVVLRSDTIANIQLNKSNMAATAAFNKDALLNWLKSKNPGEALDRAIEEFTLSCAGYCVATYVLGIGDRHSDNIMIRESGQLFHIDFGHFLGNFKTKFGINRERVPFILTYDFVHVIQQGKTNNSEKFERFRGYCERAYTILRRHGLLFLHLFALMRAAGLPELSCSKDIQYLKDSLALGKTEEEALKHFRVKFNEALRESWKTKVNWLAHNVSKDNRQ

[3] = system: passive cutaneous anaphylaxis (PCA); details: absence of functional delta (IC 87114 and p110δ D910A mice)
[4] = system: ovalbumin-induced airway inflammation

## O=C1NC(=O)/C(=C\c2ccc3nccnc3c2)S1 [AS 605240]
[1]
  efficacy in mouse model of rheumatoid arthritis: efficacious
[2]
  onset of disease in model of systemic lupus erythematosis: delay onset of disease

## Cc1ccccc1-n1c(Cn2cnc3c(N)ncnc32)nc2cccc(C)c2c1=O [IC87114]
p110δ
  inhibits p110δ: high nanomolar range (triple digit)
Protein kinases
  activity against any protein kinases tested: no activity
[3]
  passive cutaneous anaphylaxis (PCA): significantly reduced
[4]
  inflammation and disease in murine model of asthma: significantly ameliorate inflammation and disease
